In patent publication US20250059201A1, “CAMPTOTHECIN COMPOUND AND CONJUGATE THEREOF” (priority 2021, published 2025):
Where “and” joins values, the source holds several entries; their conditions need not be identical. Equal values may be shown once. Read-outs that look alike come from different tables or passages of the source.

B1: Trop2-ADC-14 (antibody, human IgG1, kappa, V domains shown)
VH: QVQLVQSGAEVKKPGASVKVSCKASGYTFTSYWMHWVRQAPGQGLEWMGEITPSDNYGSYNQKFKGRVTITRDTSTSTAYMELSSLRSEDTAVYYCARGHGNYVSFDYWGQGTLVTVSS
VL: DIQMTQSPSSLSASVGDRVTITCRASQDISNYLNWYQQKPGKAPKLLIYYTSRLESGVPSRFSGSGSGTDFTLTISSLQPEDFATYFCQQGYTLPPYTFGQGTKLEIKR
modifications: drug-containing linker MWF-L6 (Compound 3 payload) bridged on cysteines of the reduced disulfide bonds, DAR 4.1; positions not given
notes: Antibody-drug conjugate: antibody h23-12 with MWF-L6, site-specific bridged conjugation, DAR 4.1; also called ADC 1o; h23-12 conjugated with drug-containing linker MWF-L6
B2: Antibody h23-12 (antibody, human IgG1, kappa, V domains shown)
VH: QVQLVQSGAEVKKPGASVKVSCKASGYTFTSYWMHWVRQAPGQGLEWMGEITPSDNYGSYNQKFKGRVTITRDTSTSTAYMELSSLRSEDTAVYYCARGHGNYVSFDYWGQGTLVTVSS
VL: DIQMTQSPSSLSASVGDRVTITCRASQDISNYLNWYQQKPGKAPKLLIYYTSRLESGVPSRFSGSGSGTDFTLTISSLQPEDFATYFCQQGYTLPPYTFGQGTKLEIKR
notes: Monoclonal antibody; also called the mAb in Trop2-ADC-14; anti-Trop-2 antibody h23-12

Legend:
[1] = system: NCI-N87 human gastric cancer cells; test: Comparative study of the activity of camptothecins (CCK-8 cell killing); type: cell-based
Protocol: (§1) KB oral epithelial cancer cells (purchased from: ATCC) were cultured in DMEM medium supplemented with 10% FBS; NCI-N87 human gastric cancer cells (purchased from: ATCC) were cultured in RPMI1640 medium supplemented with 10% FBS; HT29 human colon cancer cells (purchased from: ATCC) were cultured in RPMI1640 medium supplemented with 10% FBS; and BxPC-3 human pancreatic adenocarcinoma cells (purchased from: ATCC) were cultured in RPMI1640 medium supplemented with 10% FBS.
(§2) Using corresponding media described above and in cell plates, the density of KB cells was adjusted to 2×10^4/mL; the density of NCI-N87 cells was adjusted to 5×10^4/mL; the density of HT29 cells was adjusted to 5×10^4/mL, and the cells were plated onto 96-well transparent flat bottom plates, at 100 µL/well, and cultured overnight; and the density of BxPC-3 cells was adjusted to 5×10^4/mL.
(§3) Samples to be detected were diluted to 20 μM with corresponding media, then 5-fold gradient dilution was performed, and 9 concentrations were obtained. A well having cells but with no any sample added was set as the well showing maximum cell growth; and a well having no cells was set as the well of medium background. The diluted samples were added into the cell plates, at 100 μL/well, which were then incubated in a C02 incubator for 96 hours. After the incubation, CCK-8 (purchased from: DOJINDO LABORATORIES) prepared beforehand was added into the plates, at 20 μL/well, and after further 3 hours incubation in the C02 incubator, […] were read on a microplate reader.
(§4) Data obtained was fitted to a four-parameter curve using software Prism7, and equation for calculating maximum killing is: maximum killing (%)=1−(OD450 value of the well showing maximum killing—OD450 value of the well of medium background)/(OD450 value of the well showing maximum cell growth—OD450 value of the cell of medium background)[…].

[2] = system: BxPC-3 human pancreatic adenocarcinoma cells; test: as above; type: cell-based; settings: for Emax: read-out: Maximum Killing (%), BxPC-3, killing days 4 days
Protocol: as §1, §2, §3, §4

[3] = system: KB oral epithelial cancer cells; test: as above; type: cell-based; settings: killing days 4 days
Protocol: as §1, §2, §3, §4

[4] = system: HT29 human colon cancer cells; test: as above; type: cell-based; settings: HT29, killing days 4 days
Protocol: as §1, §2, §3, §4

Trop-2 on BxPC-3 cells [5] = target: T1, Trop-2 on BxPC-3 cells (human, UniProt P09758 27-323); test: flow cytometry, fluorescently labeled drug on BxPC-3 cells, on ice 1 h (mean ± SD, n = 2)
T1 construct: whole, on cells; also called Trop-2-positive BxPC-3 tumor cells
T1 sequence (looked up): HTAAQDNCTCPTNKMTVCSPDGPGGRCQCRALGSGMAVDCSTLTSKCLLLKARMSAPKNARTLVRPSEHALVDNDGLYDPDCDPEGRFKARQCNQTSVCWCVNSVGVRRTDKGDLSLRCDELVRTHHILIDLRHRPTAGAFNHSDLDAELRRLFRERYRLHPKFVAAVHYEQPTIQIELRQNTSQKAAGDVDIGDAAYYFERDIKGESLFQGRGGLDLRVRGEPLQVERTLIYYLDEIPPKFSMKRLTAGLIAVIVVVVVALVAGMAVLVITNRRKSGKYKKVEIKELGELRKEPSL
Protocol: (§5) Different concentrations (1, 3, 10, 30, 100, 300, 1000, 3000, 10000, 30000, and 100000 ng/mL) of fluorescently labeled Trop2-ADC-14 and the mAb in Trop2-ADC-14 (i.e., antibody h23-12) were incubated with BxPC-3 cells (purchased from: ATCC) on ice for 1 hour in dark, and then the cells were centrifuged to remove supernatant, washed with PBS, re-suspended, and the fluorescence intensity of the drugs bound to the cells was measured with a flow cytometer (BD ACCURI C6 PLUS). The experiment was repeated once.

Trop-2 on BxPC-3 cells [6] = target: T1, Trop-2 on BxPC-3 cells; test: flow cytometry, fluorescently labeled antibody on BxPC-3 cells, on ice 1 h (mean ± SD, n = 2)
Protocol: as §5

[7] = Homo sapiens, NCI-N87, 96 h, read-out: Maximum Killing (%), NCI-N87, killing days 4 days
[8] = Homo sapiens, BXPC-3, 96 h, BxPC-3, killing days 4 days

Molecule	Emax [1, 7] [%]	Emax ([2]; Homo sapiens, BXPC-3, 96 h) [%]	also measured
CC[C@@]1(O)C(=O)OCc2c1cc1n(c2=O)Cc2c-1nc1ccc(N)c3c1c2C(C)(C)CC3 [Compound 1]	92.1	–	–
CC[C@@]1(O)C(=O)OCc2c1cc1n(c2=O)Cc2c-1nc1ccc(N)c3c1c2C1CC1C3 (some centres unmarked) [Compound 7]	87.9	94.4	–
CC[C@@]1(O)C(=O)OCc2c1cc1n(c2=O)Cc2c-1nc1ccc(N)c3c1c2CCS3 [Compound 12]	94.9	98.5	–
CC[C@@]1(O)C(=O)OCc2c1cc1n(c2=O)Cc2c-1nc1ccc(N)c3c1c2C(F)(F)CS3 [Compound 13]	–	98.9	EC50 [2, 8]: 1.41 nM
CC[C@@]1(O)C(=O)OCc2c1cc1n(c2=O)Cc2c-1nc1ccc(N)c3c1c2CC[S@+]3[O-] [Compound 14-P1]	42.5	38.8	–
CC[C@@]1(O)C(=O)OCc2c1cc1n(c2=O)Cc2c-1nc1ccc(N)c3c1c2CC[S@@+]3[O-] [Compound 14-P2]	68.4	43.3	–
CC[C@@]1(O)C(=O)OCc2c1cc1n(c2=O)Cc2c-1nc1ccc(N)c3c1c2CCO3 [Compound 14]	–	84.7	EC50 [2, 8]: 6.46 nM
CC[C@@]1(O)C(=O)OCc2c1cc1n(c2=O)Cc2c-1nc1ccc(N)c3c1c2CCS3(=O)=O [Compound 15]	83.6	87.9	–
CCC1(O)CC(=O)OCc2c1cc1n(c2=O)Cc2c-1nc1ccc(N)c3c1c2CCC3 (centres unmarked) [Compound 17]	–	–	EC50 ([1]; Homo sapiens, 96 h, NCI-N87, killing days 4 days, read-out: EC50): 7.43 nM; Emax ([1]; Homo sapiens, 96 h, NCI-N87, killing days 4 days, read-out: Maximum Killing (%)): 87.6%
CC[C@@]1(O)C(=O)OCc2c1cc1n(c2=O)Cc2c-1nc1cc(F)c(N)c3c1c2CCO3 [Compound 18]	92.9	99.6	–
CC[C@@]1(O)C(=O)OCc2c1cc1n(c2=O)Cc2c-1nc1cc(F)c(N)c3c1c2C(F)(F)CO3 [Compound 19]	–	97.4	–
CC[C@@]1(O)C(=O)OCc2c1cc1n(c2=O)Cc2c-1nc1cc(F)c(N)c3c1c2C(F)(F)CC3 [Compound 20]	93.2	99.2	EC50 [2, 8]: 0.683 nM; EC50 ([1]; Homo sapiens, NCI-N87, 96 h, NCI-N87, killing days 4 days): 0.059 nM
CC[C@@]1(O)C(=O)OCc2c1cc1n(c2=O)Cc2c-1nc1cc(F)c(N)c3c1c2CCS3 [Compound 26]	93.4	99.1	–
CC[C@@]1(O)C(=O)OCc2c1cc1n(c2=O)Cc2c-1nc1cc(F)c(N)c3c1c2C(F)(F)CS3 [Compound 27]	90.6	97.7	–
CC[C@@]1(O)C(=O)OCc2c1cc1n(c2=O)Cc2c-1nc1ccc(N)c3c1c2C(F)(F)CO3 [Compound 31]	90.7	93.7	–
CC[C@@]1(O)C(=O)OCc2c1cc1n(c2=O)Cc2c-1nc1cc(F)c(C)c3c1c2[C@@H](NC(=O)CO)CC3 [Dxd]	–	–	Maximum Killing (%) ([2]; BxPC-3, killing days 4 days): 91.8%; EC50 ([2]; BxPC-3, killing days 4 days, read-out: EC50): 24.3 nM; Maximum Killing (%) [3]: 94.7% and 94.9%; Maximum Killing (%) ([1]; NCI-N87, killing days 4 days): 92.8% and 92.7% and 94.6%; EC50 [4]: 127 nM and 133 nM; Maximum Killing (%) [4]: 87.4% and 85.4%
CC[C@@]1(O)C(=O)OCc2c1cc1n(c2=O)Cc2c-1nc1ccc(N)c3c1c2CCC3 [MWC-1, reference compound]	93.4	–	EC50 ([3]; 96 h): 14.8 nM; EC50 ([1]; Homo sapiens, NCI-N87, 96 h, NCI-N87, killing days 4 days, read-out: EC50): 4.44 nM; EC50 ([1]; NCI-N87, killing days 4 days, read-out: EC50): 5.22 nM; EC50 [4]: 8.68 nM; EC50 ([4]; Homo sapiens, HT-29, 96 h): 9.89 nM
B1	–	–	EC50 (Trop-2 on BxPC-3 cells [5]): 1.3 µg/mL
B2	–	–	EC50 (Trop-2 on BxPC-3 cells [6]): 1.14 µg/mL
